Columns and labels:
[1] = tested on: diabetic and prediabetic mice; assay: Body weight in diabetic and prediabetic NOD mice; assay type: in vivo, mouse; conditions: throughout the study period; FIG. 19A
Experimental: Fifty four NOD mice at the prediabetic and early diabetic stages were carefully selected to match the criteria of being 2 standard deviation heavier in body weight than their age-matched normoglycemic control mice and having blood glucose value of >14.9 mM/1 during the glucose tolerance test. The selected mice were 9 weeks old and were treated with 0.1 mg/kg q2d of tacrolimus (Prograf (5 mg/ml), Astellas) subcutaneously administered in 0.2 ml saline for three weeks after which animals were mated to males of the same strain (See FIG. 1). Vehicle (0.2 ml saline, s.q.) treated hyperglycemic NOD female mice were allowed two weeks in diabetes before they were mated to males of the same strain. Facial (mandibular) venous blood samples were collected from treated animals at 24 and 48 hours between injections and at pregnancy days 0.5, 2.5, 4.5, 6.5, 8.5, 10.5, 12.5, 14.5, 16.5 and 18.5 respectively following a standard procedure for facial bleed in mice (Golde et al Lab Anim (NY) 2005 34:39-43).

[2] = tested on: uterine cytokines (IFN-γ, TNFα, IL16, IL12 family and others); assay: Cytokine multiplex profiling in uteri at peri-implantation; assay type: in vivo, mouse
Excerpt: In all untreated or vehicle-treated diabetic mice, an aberrant over-expression of IFN-γ, TNFα and IL16 accounted for the immune-cytotoxicity related implantation failure in these mice.

How did the body weight gain [1] turn out when `C=CC[C@@H]1/C=C(\C)C[C@H](C)C[C@H](OC)[C@H]2O[C@@](O)(C(=O)C(=O)N3CCCC[C@H]3C(=O)O[C@H](/C(C)=C/[C@@H]3CC[C@@H](O)[C@H](OC)C3)[C@H](C)[C@@H](O)CC1=O)[C@H](C)C[C@@H]2OC` [tacrolimus] was run?
Its body weight gain is “maintained normal body weight gain”.

And the “anti-inflammatory cytokines IL-1ra, IL10 and IL2 in uteri” value ([2]; diabetes prone mice, FIG. 12)?
Its value is “inhibition of some anti-inflammatory cytokines such as IL-1ra, IL10 and IL2”.

What about the “cytokines involved in inflammation, T-cell cytotoxicity and blood coagulation” value ([2]; peri-implantation, FIG. 8) of the same compound?
Its value is “pan-inhibition of cytokines involved in inflammation, T-cell cytotoxicity and blood coagulation”.

And the “uterine expression of MCP1, MCP5, MIG9, RANTES, SDF-1, KC” value ([2]; peri-implantation, FIG. 9)?
The value was “significantly downregulated the uterine expression of six major IFN-γ-regulated inflammatory cytokines”.

What about the “Th1-induced cytokines (IFN-γ, IL16, TNFα, IL12 family) in uteri” value ([2]; short-term administration prior to mating, peri-implantation) of the same compound?
Its value is “significant inhibition of the vast majority of Th1-induced cytokines”.

And the “IL12 family cytokines in uteri” value ([2]; time of implantation, FIG. 7F)?
Its value is “downregulating members of IL12 family cytokines”.

What about the “IL5, IL7 and IL13 expression in uteri” value ([2]; time of implantation, FIG. 11) of the same compound?
Its value is “restored normalized levels of IL5, IL7 and IL13 expression”.

— patent US9427433B2, “Methods and compositions for enhancing fertility and/or inhibiting pregnancy failure and restoring glucose tolerance” (Queen's University at Kingston, priority 2011, dated 2016)
